Assays:
Type in all cases: cell-based
Rat EpiSCs = experiment: Oct-4 immunostaining of rat EpiSCs grown in supplemented CDM; conditions: for expression of the pluripotency marker Oct-4: after one week in CDM, 5B431542 10 uM, BMP4 10 ng/ml + 5B431542 10 uM, Activin 10 ng/ml + Noggin 100 ng/ml
Protocol: hESCs, mouse ESCs or EpiSCS were fixed for 20 minutes at 4° C. in 4% paraformaldehyde (PFA) and then washed three times in PBS. Cells were incubated for 20 minutes at room temperature in PBS containing 10% goat serum (Serotec) and subsequently incubated over night at 4° C. with primary antibody diluted in 1% goat serum in PBS as follows: SSEA-3 (1:100, Santa Cruz), SSAE-1 (1:25, gift from PW Andrews), Tra-1-60 (1:100, Santa CruZ), Oct-4 (1:100, SantaCruz), Sox2 (1:100, Abeam ab15830), Nanog (1:100, Abeam), Blirnpl (Abeam). Cells were then washed three times in PBS and incubated with fluorescein-Isothiocyanate-conjugated anti-mouse IgG or IgM (Sigma 1:200 in 1% goat serum in PBS) or rat IgM (Jackson laboratory 1:300 in goat serum in PBS) or rabbit IgG (Jackson laboratory 1:200 in donkey serum in PBS) for two hours at room temperature. Unbound secondary antibody was removed by 3 washes in PBS. Hoechst 33258 was added to the first wash (Sigma 1:10000).
Rat EpiSCs were grown in CDM supplemented in the presence of Activin (10 ng/ml), 5B431542 (10 uM), BMP4 10 ng/ml+5B431542 (10 uM) or Activin (10 ng/ml)+Noggin (IOOng/ml). After one week, the expression of the pluripotency marker Oct-4 was analysed using immunostaining. […] Similar results were obtained with mouse EpiSCs.

rat epiblast layers = experiment: Derivation of EpiSC lines from rat epiblast layers; conditions: addition to CDM supplemented with Activin
From the text: The hypothesis that Activin and FGF signalling in pluripotency are conserved in mammalian development is supported by the ability of Activin/Nodal signalling to maintain long-term pluripotency of both human ESCs and mouse EpiSCs. As a further test of this hypothesis, we attempted to derive EpiSCs from rats, a species from which embryonic stem cell derivation has been problematic. Following the method we established in the mouse, epiblast layers were dissected from rat embryos at pre-gastrula stages (E 7.5-8.5) and grown on fibronectin-coated or FBS coated plates in CDM supplemented with Activin and FGF. […] Nevertheless, four EpiSC lines were derived out of 14 embryos of the Wistar strain and 1 EpiSC line was derived out of 20 embryos from the Sprague-Dawley strain using CDM supplemented with Activin alone.

[1] = test system: mouse late epiblast layer; experiment: Derivation of EpiSC lines from mouse late epiblast layers; conditions: dissected mouse epiblasts in CDM with BMP4 (50 ng/ml) and LIF
Protocol: Similar culture conditions were tested for derivation of pluripotent cells from pre- and post-implantation rodent embryos. […] For derivation at post implantation stages, the late epiblast layer of embryos at pre- or early gastrulation stages (5.5 dpc or 6.5 dpc) was separated from extraembryonic tissues by microdissection using Cell Dissociation Buffer (Invitrogen) at 4° C. for 15-20 min. to promote dissociation of the layers. […] After 24 hours, the epiblast layers formed colonies of compact cells having a high nucleo-cytoplasmic ratio, a characteristic morphological trait of pluripotent embryonic stem cells. Cells on the edge of the colony started to differentiate the following day, thereby producing a broad ring of stromal cells surrounding smaller aggregates of compact cells. These heterogeneous populations proceeded to form larger colonies of cells 4-5 days later. The latter colonies were picked, dissociated into smaller clumps using collagenase IV (Invitrogen) and then transferred to new dishes. Resulting colonies were passaged again 5 days later using collagenase and mechanical dissociation. […] These cells were designated Epiblast Stem Cells (EpiSCs) on the basis of their origin from pure epiblast cell layers.
Dissected mouse epiblasts were grown in CDM supplemented with BMP4 (50 ng/ml) and LIF, two growth factors required to maintain the pluripotent status of mouse ESCs.

NC(=O)c1ccc(-c2nc(-c3ccccn3)c(-c3ccc4c(c3)OCO4)[nH]2)cc1 [5B431542, reference compound]
expression of the pluripotency marker Oct-4 (Rat EpiSCs): loss of Oct-4 expression
differentiation of EpiSCs (Rat EpiSCs; inhibition of Activin/Nodal signalling): induced rapid differentiation of EpiSCs

HGF: growth factor added to rat epiblast cultures
differentiation of early epiblast cultures (rat epiblast layers): induced differentiation

FGF2: fibroblast growth factor 2
differentiation of early epiblast cultures (rat epiblast layers): induced differentiation

EGF: growth factor added to rat epiblast cultures
differentiation of early epiblast cultures (rat epiblast layers): induced differentiation

LIF: Leukaemia Inhibitory Factor
derivation of EpiSC lines [1]: not able to derive any EpiSC lines

BMP4: growth factor required with LIF to maintain mouse ESC pluripotency
expression of the pluripotency marker Oct-4 (Rat EpiSCs): not able to rescue the pluripotent status of EpiSCs
derivation of EpiSC lines [1]: not able to derive any EpiSC lines

Source: patent US9157067B2, “Pluripotent cells from mammalian late epiblast layer” (priority 2006, dated 2015)
